# Tests used:
# [1] = tested on: 14 DIV hippocampal neurons; assay: oAβ-induced dendrite degeneration (MAP2 dendrite length, number, complexity) in cultured hippocampal neurons; type: cell-based, mouse
# Experimental: (§1) For in vitro study, all animal procedures were conducted in accordance with the National Institutes of Health Guide for the Care and Use of Laboratory Animals using protocols approved by the institutional animal care and use committee at Stanford University. Timed pregnant C57BL/6 mice (Strain code: 027) were purchased from Charles River Laboratories and delivered on embryonic day 15 (E15), after which E16 embryos were used for primary hippocampal cultures. Primary embryonic mouse hippocampal neuron cultures were plated on poly‐D‐lysine‐coated (10 µg/mL) glass cover slips at 40,000 to 50,000 cells per well in 12‐well plates (Corning Life Sciences). Cells were seeded in plating medium DMEM/F12 supplemented with 10% fetal bovine serum and 1 × penicillin/streptomycin (PS) for 2 hours. Medium was then changed to B‐27 Plus Neuronal Culture System (Invitrogen) supplemented with PS, and 2 mM glutamine.
# (§2) Immunofluorescence was performed as described previously.[24] Briefly, cultured hippocampal neurons were fixed in 4% formaldehyde for 20 minutes, permeabilized for 6 minutes in 80% ice‐cold methanol, and incubated with primary antibodies at 4°C overnight. Primary antibodies used were rabbit polyclonal MAP2 antibody for labeling dendrites (1:1000, #8707, Cell Signaling) and mouse monoclonal drebrin antibody for labeling dendritic spines (1:300; Cat#ADI‐NBA‐110, Enzo). Secondary antibodies consisted of donkey antirabbit or antimouse conjugated with either FITC or Cy3 (1:400; Jackson ImmunoResearch Laboratories, Inc.).
# (§3) The cultured hippocampal neurons were imaged using an oil‐based 63x objective on a Leica Stellaris 5 confocal microscope. The cell nucleus was stained with DAPI and imaged at a wavelength of 405 nm (blue channel), the dendrites stained by MAP2 were imaged at 488 nm wavelength (green channel), and the drebrin‐stained spines were imaged at a wavelength of 561 nm (red channel). Z‐stack images of neurons were acquired at a 1024 × 1024 resolution, a zoom factor of 1.0, and a z‐step size of 0.5 µm. The number of steps for every z‐stack picture of a neuron were determined by the size of the neuron in the z‐plane, to ensure that the entirety of a neuron is captured in the picture. The areas to be imaged were selected systematically, starting from the top‐left region to proceeding to the bottom‐right region of a coverslip. For imaging, preference was given to field of views containing isolated neurons versus clustered neurons.
# (§4) For quantification of drebrin‐positive spines in vitro, the images were analyzed using Imaris 9.3 software. Each image consisted of one major neuron and the “filaments” option in Imaris was applied to manually trace along the dendrites of every neuron, by placing starting and seed points at the beginning and along the length of the dendrites, respectively. The largest dendrite diameter (i.e., Starting Point) was set at 9.00 µm threshold while the thinnest dendrite diameter (i.e., Seed Point) was set at 1.00 µm threshold. After manually tracing the dendrites, the spines along the dendrites were assessed using the automatic “spine detection” function in Imaris. The thinnest spine diameter was set at 0.80 µm threshold while the maximum spine length was set at 5.00 µm. The spine density (number of spines/dendrite length) was then calculated for each neuron. All image acquisition and quantification were performed in a blind manner. For in vitro quantification of dendrite degeneration, Neurolucida (MBF Biosciences) in the manual mode was used to measure the total dendritic length, numbers of dendrites, and dendritic complexity for each neuron.
# [2] = tested on: 14 DIV hippocampal neurons; assay: oTau-induced dendrite degeneration (MAP2 dendrite length, number) in cultured hippocampal neurons; type: cell-based, mouse; details: oTau 50 nM + inhibitor 24 h vs oTau alone, NVS-PAK1-1 10 nM, AZ 1 nM, G 5 nM
# Experimental: as §1, §2, §3, §4
structure (smiles),measurement,setting,value
"CC(C)NC(=O)N1CC[C@H](NC2=Nc3cc(F)ccc3N(CC(F)F)c3ccc(Cl)cc32)C1 [NVS‐PAK1‐1, (S)‐3‐([2‐chloro‐5‐(2,2‐difluoroethyl)‐8‐fluoro‐5H‐dibenzo[b,e][1,4]diazepin‐11‐yl]amino)‐N‐isopropylpyrrolidine‐1‐carboxamide]",dendritic complexity,"[1]; oAβ 1 µM + 10 nM, 24 h, vs oAβ alone",preservation of complexity
same,dendrite number per neuron,"[1]; oAβ 1 µM + inhibitor 24 h vs oAβ alone, NVS-PAK1-1 10 nM, AZ 1 nM, G 5 nM",significantly increased dendrite number per neuron
same,total dendrite length per neuron,"[1]; oAβ 1 µM + inhibitor 24 h vs oAβ alone, NVS-PAK1-1 10 nM, PAK1-C 10 nM, AZ 1 nM, G 5 nM",preserved dendrite length
same,dendrite number per neuron,[2],significantly increased dendrite number per neuron
same,total dendrite length per neuron,[2]; PAK1-C 10 nM,preserved dendrite length

# — PMC12741935 (Alzheimer's & Dementia, 2025)
